Three compounds from patent US20100119452A1, “SCREENING METHOD” (Takeda Pharmaceutical Company Limited, priority 2007, published 2010) can be followed below.

The subject of one assay is androgen receptors. The assay can be described thus: Reporter assay using LNCaP-hr cells (6k-PSA promoter, firefly luciferase). Particulars: LNCaP-hr cells with PSA promoter-luciferase, 24 hours after addition. In kind it is cell-based, human. (In general: Reporter assays use an easily measured gene product as a stand-in for the process of interest.)
The next assay concerns LNCaP-hr cells. In words: Antitumor test using nude mice transplanted with LNCaP-hr cells. It counts as in vivo. Particulars: castrated nude mice, LNCaP-hr subcutaneous, 15 mg/kg orally twice daily for three weeks; for T/C (tumor volume): control 100%, start of administration 0%. The method, then:
LNCaP-hr cells were suspended in Matrigel, and 5×10^6 cells were transplanted subcutaneously into the flank of castrated nude mice. When tumor volume reached approximately 100 mm^3, the animals were grouped based on the tumor volume, and administered orally with 15 mg/kg body weight of the compound twice daily for three weeks. The tumor volume was calculated based on the assumption that the volume of the control group was 100% and the volume of the treated group at the start of the administration was 0% (T/C %).

Experimental for androgen receptors: As a negative control compound, conventional AR antagonist, bicalutamide was used. 6k-PSA promoter and firefly luciferase gene were used as a PSA promoter and a reporter gene, respectively.
LNCaP-hr cells transfected with a reporter gene linked to a PSA promoter were plated on 96-well plates at a density of 50,000 cells/100 μL/well, to which the test compounds were added after the cells were cultured for 8 hours. The reporter activity was determined 24 hours after the addition of the test compounds. The suppressing activity of the test compounds on the reporter gene was calculated based on the assumption that the reporter activity in the cells without the addition of the test compounds (control group) was 100% and the reporter activity of the non-treated LNCaP-hr cells without introduction of the reporter gene was 0%.

With `Cc1cc(-c2ccc(C#N)cc2)c(C)n1Cc1cc(C(F)(F)F)n[nH]1` [Compound 6], the “Suppressing activity on the reporter gene” value (shortened to “Suppressing activity”) with androgen receptors is given as “Concentration-dependent suppressing activity on the reporter gene was observed”. Further, in the assay on LNCaP-hr cells, the Antitumor activity entry is listed as “antitumor activity was observed” and the “T/C (tumor volume)” value is on record as “T/C = −3%”.

With `Cc1cc(-c2ccc(C#N)cc2)c(C#N)n1Cc1cc(C(F)(F)F)n[nH]1` [Compound 8], in the assay on androgen receptors, the “Suppressing activity” value is reported as “Concentration-dependent suppressing activity on the reporter gene was observed”. Moreover, in the assay with LNCaP-hr cells, the Antitumor activity entry is listed as “antitumor activity was observed” and the “T/C (tumor volume)” value is listed as “T/C = −5%”.

For the compound `Cc1cc(-c2ccc(C#N)cc2)c(C)n1Cc1cn[nH]c1C(C)(C)O` [Compound 9], the “Suppressing activity” value in the assay with androgen receptors is “Concentration-dependent suppressing activity on the reporter gene was observed”. Moreover, in the assay with LNCaP-hr cells, the Antitumor activity entry is “antitumor activity was observed” and the “T/C (tumor volume)” value was “T/C = 24%”.
